Test results from patent US12357591B2 (Nova Southeastern University, priority 2018, dated 2025).

Assays:
[1] = cited from earlier work
in vitro [2] = details: for Papp at 90 min, 10 mg/mL: pig
Description: Frozen pig's heads were obtained from local abattoir. Then, they were defrosted at room temperature. The porcine mucosa were excised by dissecting the sublingual mucosa and removing the underlying connective tissue using a scalpel and fine tweezers using established surgical techniques. The excised mucosa were frozen on aluminum foil at −20° C. until used (<4 weeks).
The sublingual mucosa (floor of the mouth) excised from pigs were used as the diffusion membranes. Mcvilian buffer at various pH was used in the donor cell as a diffusion medium.
Before each experiment, the mucosal membranes were defrosted at room temperature and mounted between the donor and receptor chambers and clamped using a metal clamp. The receptor chamber that has a magnetic stirrer was filled with the diffusion medium before mounting the membranes and air bubbles were removed after mounting the membranes and before the experiment. The water bath was set at 37° C. for the circulating water in the jacketed Franz Cells. The mounted membranes were equilibrated with the diffusion medium for 30 min from both sides before the experiment and were checked for any leaks.
Aliquots were withdrawn from the receptor chamber using 6 inch-long needles (Popper & Sons. Inc, New Hyde Park, NYC) and 1 mL syringes at 5, 10, 15, 20, 30, 45, 60, 75, and 90 min. The withdrawn volumes were replaced with fresh medium.
Samples were transferred to HPLC vials for HPLC analysis according to USP Method.

in vitro [3] = assay: in vitro
Description: The volunteer was asked not to eat or drink any acidic, alkaline, or spicy food or beverages and to rinse their mouth before the collection of saliva. The saliva was collected into an ice-bathed beaker and then degased to remove air bubbles and then filtered through 0.45 μm membrane.
Aliquot samples were withdrawn at specific time intervals including 2, 4, 6, 10, 15, and 30 min.

[4] = Epinephrine permeability with alkalizing agent and penetration enhancer, Franz cells; assay type: in vitro ADME, porcine
Description: EpiBit solution with penetration enhancer and alkalizing agent was added to the donor chamber.

[5] = between pH 4 to 5, first 2 min
Description: Aliquot samples were withdrawn at specific time intervals including 2 (maximum expected time for sublingual administration), 4, 6, 10, 15, and 30 min.

[6] = pH of 2 mL water as diffusion medium with pH-modifying excipients; assay type: physicochemical
[7] = 1.125% (w/v) in 2 mL water, With Epi (20 mg)
[8] = 1.125% (w/v) in 2 mL water, Without Epi
[9] = 1.875% (w/v) in 2 mL water, With Epi (20 mg)
[10] = 1.875% (w/v) in 2 mL water, Without Epi

Which results are given for CNC[C@H](O)c1ccc(O)c(O)c1 [Epi, Epinephrine]?
optimal pH values for the stability of Epi in aqueous solution [1]: 3.0-3.8; AUC0-90 min (in vitro [2]; pH 5): 5169 ± 255 μg/cm^2/ min; J (influx) (in vitro [2]; pH 5): 0.4 ± 0.1 μg/cm^2/min; AUC0-90 min (in vitro [2]; pH 6): 6191 ± 756 μg/cm^2/ min; J (influx) (in vitro [2]; pH 6): 0.8 ± 0.2 μg/cm^2/min; AUC0-90 min (in vitro [2]; pH 6.8): 46562 ± 3450 μg/cm^2/ min; J (influx) (in vitro [2]; pH 6.8): 2.8 ± 0.2 μg/cm^2/min; AUC0-90 min (in vitro [2]; pH 7.4): 60099 ± 6576 μg/cm^2/ min; J (influx) (in vitro [2]; pH 7.4): 5.3 ± 0.2 μg/cm^2/min; AUC0-90 min (in vitro [2]; pH 8): 135689 ± 439 μg/cm^2/ min; J (influx) (in vitro [2]; pH 8): 30.9 ± 0.4 μg/cm^2/min; increase of Epi sublingual permeability (in vitro [2]; pH 8 compared to pH 6.8): about 11 fold; Papp at 90 min, 10 mg/mL (in vitro [2]; pH 5): 333 ×10⁻⁶ cm/s; Papp at 90 min, 10 mg/mL (in vitro [2]; pH 6): 667 ×10⁻⁶ cm/s; Papp at 90 min, 10 mg/mL (in vitro [2]; pH 6.8): 2330 ×10⁻⁶ cm/s; Papp at 90 min, 10 mg/mL (in vitro [2]; pH 7.4): 4330 ×10⁻⁶ cm/s; recovery at 0 min, 5 mg/mL (in vitro [3]; male, human, human saliva): 100 ± 0.2%; recovery at 2 min, 5 mg/mL (in vitro [3]; male, human, human saliva): 96 ± 0.2%; recovery at 4 min, 5 mg/mL (in vitro [3]; male, human, human saliva): 96 ± 0.2%; recovery at 6 min, 5 mg/mL (in vitro [3]; male, human, human saliva): 95 ± 0.1%; recovery at 10 min, 5 mg/mL (in vitro [3]; male, human, human saliva): 95 ± 0.2%; recovery at 15 min, 5 mg/mL (in vitro [3]; male, human, human saliva): 92 ± 0.2%; recovery at 30 min, 5 mg/mL (in vitro [3]; male, human, human saliva): 84%; stability of Epi in human saliva (in vitro [3]; saliva pH and up to pH 8): stable in human saliva (saliva pH and up to pH 8) for sufficient time to allow for sublingual drug administration; enhancement of Epi sublingual permeability ([4]; alkalizing agent (pH of diffusion medium around 8) with permeation enhancer like SDS): about 25 fold; enhancement of Epi sublingual permeability ([4]; alkalizing agent or permeation enhancer, each one alone): 10- to 11 fold; Epi loss [5]: 10-17%

Which “pH Reading” value [6, 7] does the source give for Na Citrate here?
The value was 5.0 ± 0.1.

What about the “pH Reading” value [6, 8] of the same compound?
Its value is 9.4 ± 0.1.

And the “pH Reading” value [6, 9]?
The value was 7.1 ± 0.1.

And the “pH Reading” value [6, 10]?
The value was 9.8 ± 0.1.

Which results are given for O=C([O-])O.[Na+] [Na Bicarbonate, sodium bicarbonate]?
pH Reading [6, 7]: 7.9 ± 0.1; pH Reading [6, 8]: 8.9 ± 0.1; pH Reading [6, 9]: 7.7 ± 0.0; pH Reading [6, 10]: 8.5 ± 0.1; pH Reading ([6]; 2.25% (w/v) in 2 mL water, With Epi (20 mg)): 7.9 ± 0.1; pH Reading ([6]; 2.25% (w/v) in 2 mL water, Without Epi): 8.6 ± 0.1
